Test results taken from US4060652A (priority 1976, dated 1977).
Entries after “also recorded” stand apart in the source; their conditions may differ.

Tests used:
[1] = system: postsynaptic membrane of skeletal muscle; assay: Site of action: close intra-arterial acetylcholine and direct stimulation; format: in vivo; conditions: cats
Protocol: Cats were narcotized (with chloralose, 50 mg per kg body weight, and urethane, 500 mg/kg, intraperitoneally) or decerebrated at the quadrigeminal bodies level. The lungs were ventilated artificially whenever necessary. Contractions of the anterior tibial muscle were recorded in isotonic concitions in response to electric stimulation of the peripheral part of n. peroneus with supramaximum pulses of 0.1 msec at a frequency of 0.1-100 Hz.
The blocking effect of Tercuronium is due to its action on the postsynaptic membrane of skeletal muscle.

M-cholinoreceptors = assay: Depression after intravenous acetylcholine in cats; format: in vivo; conditions: 0.1 to 1.0 mcM/kg; acetylcholine 3 mg/kg; three cats
Protocol: Experiments were carried out on narcotized cats (chloralose and urethane, intraperitoneally).

rabbits [2] = assay: Head-drop test in non-narcotized rabbits; format: in vivo
Protocol: In experiments (a total of twenty) on non-narcotized rabbits, the head-drop dose (HDD) was 0.022 ± 0.009 micromole/kg A complete blocking effect developed 1.5 to 2 minutes after administration of Tercuronium and persisted for 3 to 5 minutes. A few minutes later, the animal behaviour normalized. The same effect was attained with 0.18 ± 0.02 micromole/kg of α-tubocurarin (6 experiments) and 0.018 ± 0.001 mcM/kg of pancuronium (6 experiments). The time of onset and the duration of the blocking effect with all the three preparations were the same.

[3] = system: nervomuscular conduction and arterial pressure; assay: Effect of narcotics on action in decerebrated cats; format: in vivo
Source text: The action of ether, fluorothane, and sodium thiopental (given in narcotic concentrations) on the nervomuscular blocking activity and depressive effect (action on the arterial pressure) of Tercuronium, as well as on the neostigmin-Tercuronium antagonism was studied on decerebrated cats.

[4] = system: blood coagulation and erythrocytes; assay: Effect on blood coagulation rate and resistance of erythrocytes; format: in vivo; conditions: two rabbits, two narcotized cats
[5] = Lethality by paralysis of respiratory muscles in rabbits; conditions: rabbit, in vivo
Source text: In another series of experiments, we determined the intravenous dose of the muscle relaxants that caused death of 50% of the animals due to paralysis of the respiratory muscles -- lethal dose 50% (LD50).

[6] = system: nervomuscular conduction, vegetative ganglia, circulation; assay: Overall conclusions from animal experiments; format: in vivo, animals
Source text: The results of the pharmacological studies of the proposed muscle relaxant Tercuronium, as compared with the known muscle relaxants, enable us to make the following conclusions.

rabbits [7] = assay: Allergizing action, Arthus-Sakharov phenomenon in rabbits; format: in vivo; conditions: seven subcutaneous injections at 5-day intervals
Protocol: In order to study the allergizing action of Tercuronium, we used the Arthus-Sakharov phenomenon. Experiments were carried on three rabbits. Tercuronium was injected to each rabbit in a dose of […] subcutaneously on the left side of the back in a volume of 0.2 to 0.25 ml, and 1 ml of horse serum was injected into the right side of the back (also subcutaneously). We made seven injections at 5-day in tervals. Horse serum alone was injected to the fourth (control) rabbit in the same order.

[8] = Lethality by paralysis of respiratory muscles in mice; conditions: mouse, in vivo, iv
Source text: (§1) In experiments on albino mice, the dose of Tercuronium injected into the tail vein, that inhibited the symptom of turning from the lateral position in 50 percent of mice (ED50) was 0.06 mcM/kg (18 experiments); and 50 percent of mice perished from paralysis of the respiratory muscles (LD50) following an injection of 0.09 mcM/kg of Tercuronium.

patients = assay: Surgical operations, second series (intubation and maintenance); format: in vivo, patients (human)
Protocol: We tried Tercuronium as a muscle relaxant in surgical operations on the abdominal and thoracic organs in 150 patients. The operations were carried out in conditions of intubation narcosis and artificial lung ventilation. Ether, fluorothane, nitrous oxide and barbiturates were used as anesthetics.
In the second series of observations (30 operations), Tercuronium was used for both maintaining muscle relaxation and intubation of the trachea. For this purpose, Tercuronium was used intravenously in a dose of 0.25 to 0.3 mg/kg. […] The relaxation continued for about an hour. For a longer relaxation of muscles, a repeated injection of Tercuronium in a dose of 0.05 to 0.08 mg/kg was required.

[9] = Solubility, stability and pH; format: physicochemical; conditions: for stability on exposure to air: solid
Protocol: The active principle of Tercuronium, viz., p,p"-bis-triethylammonio-n-terphenyl dibenzenesulphonate having the structure [drawing 1] is a new compound that has not been described in literature. […] A 0.0012 percent solution of the active principle in a 0.01 N solution of hydrochloric acid has a specific absorption spectrum in the U-V region, with a maximum at 285 ± 2 nm and a minimum at 237 ± 1 nm.
Distilled water should contain a stabilizing agent, namely 3 ml of a 0.1 N solution of HCl per liter of water. The solution is stirred, filtered, and filled into 1-ml ampoules made of neutral glass. The ampoules are sterilized with steam at a temperature of 100° C for thirty minutes. The pH of the solution after sterilization is 3.7 (determined potentiometrically).

albino mice = assay: Inhibition of turning from the lateral position in mice; format: in vivo
Source text: as §1

pigeons = assay: Paralysis in pigeons; format: in vivo
[10] = system: phrenico-diaphragm preparations; assay: Block of nervomuscular conduction in isolated phrenico-diaphragm preparations; design: species or system rats; conditions: rat, isolated by the Bulbring method
Source text: In experiments on phrenico-diaphragm preparations of rats, isolated by the Bulbring method, the block of the nervomuscular conduction developed under the action of Tercuronium in a concentration of 2 × 10^-6 m/litre.

[11] = deep fluorothane-induced anesthesia
[12] = ether, fluorothane, sodium thiopental

Q: What does the source list for `CC[N+](CC)(CC)c1ccc(-c2ccc(-c3ccc([N+](CC)(CC)CC)cc3)cc2)cc1` [Tercuronium, p,p"-bis-triethylammonio-n-terphenyl dibenzenesulphonate]?
A: site of blocking action [1]: contraction of muscles induced by acetylcholine injected by the close intra-arterial method, was inhibited simultaneously with the block of the nervomuscular condution; also recorded: it contracted in response to direct stimuli; depression after intravenous acetylcholine (M-cholinoreceptors): did not produce depression; ED (head drop) (rabbits [2]; Oryctolagus cuniculus, read-out: head-drop dose (HDD)): 0.022 ± 0.009 µmol/kg; time of onset and duration of blocking effect, comparison (rabbits [2]; all three preparations): the same; blocking effect compared with pancuronium (rabbits [2]; rabbits): somewhat lower than that of pancuronium; blocking effect relative to α-tubocurarin (rabbits [2]; rabbits): eight; interaction with fluorothane on blood pressure ([3]; decerebrated cats): did not observe mutual strengthening of fluorothane and Tercuronium action on blood pressure; action on arterial pressure in ether narcosis ([3]; deep ether-induced narcosis): did not substantially change; depressive effect in fluorothane anesthesia [3, 11]: failed to increase; myoparalytic effect in fluorothane anesthesia [3, 11]: intensified insignificantly; compatibility with anesthetic agents [3, 12]: quite compatible with anesthetic agents such as ether, fluorothane, and sodium thiopental; neostigmin antagonism against background of narcotics [3, 12]: persisted against the back ground of narcotics; also recorded: fully preserved; curare-like activity and action on blood pressure with sodium thiopental ([3]; sodium thiopental 10 mg/kg): did not change; blood coagulation rate and resistance of the erythrocytes [4]: did not discover any effect; LD50 ([5]; intravenous): 0.03 µmol/kg; selectivity ratio ([5]; read-out: LD50 to HDD ratio): 1.4; blood pressure at ten-fold dose ([6]; cats, ten-fold dose): only slightly reduced; nervomuscular blocking activity compared with pancuronium ([6]; experiments on animals): somewhat lower than of pancuronium; histamine, vegetative ganglia, blood pressure and heart frequency ([6]; myoparalytic dose): does not produce histamine, does not block vegetative ganglia or affect the blood pressure and frequency of heart contractions; frequency of heart contraction ([6]; ten times the myoparalytic dose): does not affect the frequency of heart contraction; local allergic reaction (rabbits [7]): no reaction; LD50 [8]: 0.09 µmol/kg; selectivity ratio ([8]; read-out: width of the muscle relaxing action (LD50/ED50)): 1.5; cardiovascular disorders or other complications (patients; 0.25 to 0.3 mg/kg): not accompanied by cardiovacular disorders or any other complications; duration of relaxation (patients; 0.25 to 0.3 mg/kg intravenous): about an hour; intubation conditions (patients; 0.25 to 0.3 mg/kg intravenous): unobstructed intubation; postoperative complications (patients; postoperative period): no cases of muscle atomia, respiratory insufficiency, or recurarization; efficiency of proserpin as deblocking agent (patients; proserpin): complete; solubility in water [9]: readily soluble in water; stability on exposure to air [9]: slightly green when exposed to air; stability on exposure to air ([9]; listed as p,p"-bis-triethylammonio-p-terphenyl): becomes slightly green on exposture to air; stability of aqueous solution ([9]; stabilizer 3 ml of 0.1 N HCl per liter of water): stable in the presence of a stabilizer; ED50 (albino mice; Mus musculus, iv): 0.06 µmol/kg; myoparalytic action compared with pancuronium and α-tubocurarin (albino mice; mice): several times lower than that of pancuronium and several times higher than that of α-tubocurarin; effect in pigeons (pigeons; 0.2 mcM/kg intravenous): weak paralysis developed; also recorded: shows the nondepolarizing effect as well; ED50 (pigeons; Columbidae, pigeons, intravenous): 0.2 µmol/kg; concentration blocking nervomuscular conduction [10]: 2 × 10^-6 m/litre
